In patent US20170107207A1, “AMINOPYRAZOLONE DERIVATIVE” (DAIICHI SANKYO COMPANY, LIMITED, priority 2014, published 2017):

Key:
TIP48/TIP49 complex = molecular target: T1, TIP48/TIP49 complex (Homo sapiens, UniProt Q9Y230+Q9Y265); experiment: ATPase assay of TIP48/TIP49 complex (ADP-Glo); assay type: biochemical; details: concentration at which the ATPase activity was inhibited by 50%
T1 construct: made in house; host or cells: E. coli
Excerpt: The ATPase activity of the TIP48/TIP49 complex can be measured by use of an ATPase assay described below in Test Examples 1 and 2. The ATPase activity of the TIP48/TIP49 complex can be measured, as described below in the Test Examples, for example, by using recombinant human TIP48 and TIP49 proteins (hereinafter, referred to as rTIP48 and rTIP49) and ATP in the presence or absence of a test compound and measuring the amount of ADP formed through hydrolysis by the ATPase activity of the TIP48/TIP49 complex, using ADP-Glo. Alternatively, the ATPase activity of the TIP48/TIP49 complex can be measured by a method described in, for example, J. Mol. Biol. 366, 172-179 (2007).
An ATPase assay of a TIP48/TIP49 complex was conducted using rTIP48 and rTIP49. Human TIP48 and TIP49 DNAs were purchased from Open Biosystems. Human TIP48 and TIP49 cDNAs cloned by PCR using the purchased DNAs were each integrated into plasmids for expression in E. coli and expressed in E. coli to obtain rTIP48 and rTIP49.
A test compound was dissolved at 10 mM using DMSO. The solution was diluted to 10 concentrations as 4-fold serial dilutions from 10 mM using DMSO.
A 2×assay buffer (100 mM Tris-HCl, pH 7.5, 100 mM NaCl, 40 mM MgCl2, 2 mM DTT, 20 μM ATP, and 0.2 mg/mL BSA) was dispensed at 24.5 μL/well to a 384-well assay plate.
Test compound solutions were dispensed thereto at 1 μL/well. Subsequently, the solution in each well was mixed using a plate mixer.
rTIP48 and rTIP49 were diluted to a concentration of 50 μg/mL using sterilized water. The diluted solution was dispensed at 24.5 μL/well to the 384-well assay plate. Subsequently, the solution in each well was mixed using a plate mixer (final concentration: 24.5 μg/mL) (concentration of each test compound solution: 200 μM, 50 μM, 12.5 μM, 3.12 μM, 0.78 μM, 0.20 μM, 0.049 μM, 0.012 μM, 0.003 μM, and 0.0007 μM; DMSO concentration: 2%).
After the mixing using the plate mixer, the assay plate was left standing at room temperature for 1.5 hours.
5 μL of the solution in each well was transferred to a white assay plate, and ADP-Glo Reagent from ADP-Glo Kinase Assay (Promega Corp., catalog No. V9101) was dispensed thereto at 5 μL/well. After completion of the reaction, the plate was left standing at room temperature for 40 minutes. Kinase Detection Reagent was further dispensed thereto at 5 μL/well, and the plate was left standing at room temperature for 30 minutes. Then, luminescence intensity was measured using a plate reader.
The ATPase inhibitory activity was calculated according to the expression given below.
The luminescence intensity of a well supplemented with the test compound and the TIP48/TIP49 complex was defined as A. The luminescence intensity of a well supplemented with only the TIP48/TIP49 complex was defined as B. The luminescence intensity of a well supplemented with neither the test compound nor the TIP48/TIP49 complex was defined as C. The ratio between the test compound-supplemented group and the test compound-nonsupplemented group (T/C value) was determined according to the following calculation expression:
The dose-response curve was calculated using GraphPad Prism 4 from the concentration of each of the serially diluted test compounds and the ATPase inhibitory activity (%) at this concentration.

[1] = system: human lymphoma cell line RAMOS cells; experiment: Cell growth inhibition test using RAMOS cell, ATP assay (CellTiter-Glo); assay type: cell-based; details: Homo sapiens, Ramos, 72 h, cultured 3 days, 50% growth inhibition concentration
Method: A cell growth inhibition test was carried out by treating human lymphoma cell line RAMOS cells with a test compound for a given period and then counting the number of viable cells by MTT assay or CellTiter-Glo Luminescent Cell Viability Assay (manufactured by Promega Corp.; hereinafter, referred to as ATP assay).
RAMOS cells were inoculated at 4000 cells/40 μL/well to a 384-well plate containing the compound prepared in advance at predetermined concentrations. The cells thus inoculated were cultured at 37° C. for 3 days under 5% CO2. In order to measure a cell survival rate, CellTiter-Glo Reagent was added in an amount corresponding to 1/4 of the amount of the culture solution at the day of cell inoculation and at the final culture date and stirred at room temperature for 2 minutes. Then, luminescence intensity was measured using a plate reader. The cell survival rate was calculated according to the expression given below.
The number of viable cells and luminescence intensity have been confirmed to correlate with each other. Therefore, the rate of cell growth was calculated according to the following expression: Rate of cell growth (T/C %) of a test compound-supplemented well=100×[(B−C)/(A−C)] wherein A represents the luminescence intensity (final culture date) of a test compound-free well; B represents the luminescence intensity (final culture date) of a test compound-containing well; and C represents the luminescence intensity (day of cell inoculation) of a well at the start of contact of the cells with the test compound.
T/C % at each concentration of the test compound was determined. The concentration at which the test compound offered 50% growth rate was calculated as a GI50 value from the growth rates at two points interpolating 50% and the concentrations, and is shown in Table 56.

T1 sequence (Q9Y230 whole entry): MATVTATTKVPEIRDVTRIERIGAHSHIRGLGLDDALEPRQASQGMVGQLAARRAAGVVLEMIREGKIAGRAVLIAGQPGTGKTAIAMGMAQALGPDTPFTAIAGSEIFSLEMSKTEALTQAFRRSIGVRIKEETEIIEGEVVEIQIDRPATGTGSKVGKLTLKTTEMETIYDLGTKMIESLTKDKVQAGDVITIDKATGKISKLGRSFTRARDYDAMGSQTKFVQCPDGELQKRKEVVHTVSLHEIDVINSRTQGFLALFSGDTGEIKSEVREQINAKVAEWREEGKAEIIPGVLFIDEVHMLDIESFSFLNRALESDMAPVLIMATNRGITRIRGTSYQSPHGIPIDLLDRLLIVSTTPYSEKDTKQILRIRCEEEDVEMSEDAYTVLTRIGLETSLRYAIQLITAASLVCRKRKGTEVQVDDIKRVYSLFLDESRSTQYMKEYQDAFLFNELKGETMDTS
T1 sequence (Q9Y265 whole entry): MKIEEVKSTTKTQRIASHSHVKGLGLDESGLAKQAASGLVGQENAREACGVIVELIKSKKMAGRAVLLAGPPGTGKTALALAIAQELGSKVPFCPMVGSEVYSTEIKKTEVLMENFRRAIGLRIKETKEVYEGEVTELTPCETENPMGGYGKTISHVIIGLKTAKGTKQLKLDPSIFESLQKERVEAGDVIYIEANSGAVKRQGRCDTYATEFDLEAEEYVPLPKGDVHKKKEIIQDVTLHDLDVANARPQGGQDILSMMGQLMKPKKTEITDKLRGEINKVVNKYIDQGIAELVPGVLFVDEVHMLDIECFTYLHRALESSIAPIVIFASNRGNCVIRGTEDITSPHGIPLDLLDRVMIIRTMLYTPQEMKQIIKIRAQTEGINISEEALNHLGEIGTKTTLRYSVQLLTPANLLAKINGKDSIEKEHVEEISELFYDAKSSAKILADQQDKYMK

IC50 (TIP48/TIP49 complex) [nM] | GI50 [1] [nM] | SMILES
56 | 470 | CCOc1cc(F)c(Cl)cc1C(=O)NCC(C)(C)CC(=O)Nc1c(CCNC)n(C)n(-c2ccccc2)c1=O [Example 34, 5-Chloro-N-[2,2-dimethyl-4-({1-methyl-5-[2-(methylamino)ethyl]-3-oxo-2-phenyl-2,3-dihydro-1H-pyrazol-4-yl}amino)-4-oxobutyl]-2-ethoxy-4-fluorobenzamide]
24 | 120 | CCOc1ccc(Cl)cc1C(=O)NCC(C)(C)CC(=O)Nc1c(CCN(C)CCF)n(C)n(-c2ccccc2)c1=O [Example 36, 5-Chloro-2-ethoxy-N-{4-[(5-{2-[2-fluoroethyl(methyl)amino]ethyl}-1-methyl-3-oxo-2-phenyl-2,3-dihydro-1H-pyrazol-4-yl)amino]-2,2-dimethyl-4-oxobutyl}benzamide]
38 | 120 | CCOc1cc(F)c(Cl)cc1C(=O)NCC(C)(C)CC(=O)Nc1c(CCN(C)CCF)n(C)n(-c2ccccc2)c1=O [Example 37, 5-Chloro-2-ethoxy-4-fluoro-N-{4-[(5-{2-[2-fluoroethyl(methyl)amino]ethyl}-1-methyl-3-oxo-2-phenyl-2,3-dihydro-1H-pyrazol-4-yl)amino]-2,2-dimethyl-4-oxobutyl}benzamide]
77 | 210 | CCOc1cc(F)c(Cl)cc1C(=O)NCC(C)(C)CC(=O)Nc1c(CCN(C)CC(F)(F)F)n(C)n(-c2ccccc2)c1=O [Example 38, 5-Chloro-N-{2,2-dimethyl-4-[(1-methyl-5-{2-[methyl(2,2,2-trifluoroethyl)amino]ethyl}-3-oxo-2-phenyl-2,3-dihydro-1H-pyrazol-4-yl)amino]-4-oxobutyl}-2-ethoxy-4-fluorobenzamide]
20 | 98 | CCOc1cc(F)c(Cl)cc1C(=O)NCC(C)(C)CC(=O)Nc1c(CCN(C)C)n(CC)n(-c2ccccc2)c1=O [Example 41, 5-Chloro-N-[4-({5-[2-(dimethylamino)ethyl]-1-ethyl-3-oxo-2-phenyl-2,3-dihydro-1H-pyrazol-4-yl}amino)-2,2-dimethyl-4-oxobutyl]-2-ethoxy-4-fluorobenzamide]
80 | 150 | CCOc1ncc(Cl)cc1C(=O)NCC(C)(C)CC(=O)Nc1c(CCN(C)C)n(CC)n(-c2ccccc2)c1=O [Example 42, 5-Chloro-N-[4-({5-[2-(dimethylamino)ethyl]-1-ethyl-3-oxo-2-phenyl-2,3-dihydro-1H-pyrazol-4-yl}amino)-2,2-dimethyl-4-oxobutyl]-2-ethoxypyridine-3-carboxamide]
60 | 190 | [2H]C([2H])([2H])n1c(CCN(C)C)c(NC(=O)CC(C)(C)CNC(=O)c2cc(Cl)ccc2OCC)c(=O)n1-c1ccccc1 [Example 43, 5-Chloro-N-[4-({3-[2-(dimethylamino)ethyl]-5-oxo-1-phenyl-2-(trideuteriomethyl)pyrazol-4-yl}amino)-2,2-dimethyl-4-oxobutyl]-2-ethoxybenzamide]
150 | 470 | [2H]C([2H])([2H])n1c(CCN(C)C)c(NC(=O)CC(C)(C)CNC(=O)c2cc(Br)cnc2OCC)c(=O)n1-c1ccccc1 [Example 44, 5-Bromo-N-[4-({3-[2-(dimethylamino)ethyl]-5-oxo-1-phenyl-2-(trideuteriomethyl)-2,3-dihydro-1H-pyrazol-4-yl}amino)-2,2-dimethyl-4-oxobutyl]-2-ethoxypyridine-3-carboxamide]
77 | 480 | CCOc1ccc(Cl)cc1C(=O)NCC(C)(C)CC(=O)Nc1c(CCN(C)C)n(C)n(-c2ccccc2F)c1=O [Example 45, 5-Chloro-N-[4-({3-[2-(dimethylamino)ethyl]-1-(2-fluorophenyl)-2-methyl-5-oxopyrazol-4-yl}amino)-2,2-dimethyl-4-oxobutyl]-2-ethoxybenzamide]
81 | 470 | Cc1cc2cc(Cl)cc(C(=O)NCC(C)(C)CC(=O)Nc3c(CCN(C)C)n(C)n(-c4ccccc4F)c3=O)c2o1 [Example 46, 5-Chloro-N-[4-({3-[2-(dimethylamino)ethyl]-1-(2-fluorophenyl)-2-methyl-5-oxo-1,5-dihydro-1H-pyrazol-4-yl}amino)-2,2-dimethyl-4-oxobutyl]-2-methylbenzofuran-7-carboxamide]
37 | 250 | CCOc1ccc(Cl)cc1C(=O)NCC(C)(C)CC(=O)Nc1c(CCN(C)C)n(C)n(-c2cccc(Cl)n2)c1=O [Example 47, 5-Chloro-N-(4-{[1-(6-chloro-2-pyridyl)-3-(2-dimethylamino)ethyl]-2-methyl-5-oxopyrazol-4-yl}amino-2,2-dimethyl-4-oxobutyl)-2-ethoxybenzamide]
61 | 160 | CCOc1ccc(Cl)cc1C(=O)NCC(C)(C)CC(=O)Nc1c(C[C@@H](C)N(C)C)n(C)n(-c2ccccc2)c1=O [Example 48, 5-Chloro-N-[4-({5-[(2R)-2-(dimethylamino)propyl]-1-methyl-3-oxo-2-phenyl-2,3-dihydro-1H-pyrazol-4-yl}amino)-2,2-dimethyl-4-oxobutyl]-2-ethoxybenzamide]
69 | 160 | CCOc1cc(F)c(Cl)cc1C(=O)NCC(C)(C)CC(=O)Nc1c(C[C@@H](C)N(C)C)n(C)n(-c2ccccc2)c1=O [Example 49, 5-Chloro-N-[4-({5-[(2R)-2-(dimethylamino)propyl]-1-methyl-3-oxo-2-phenyl-2,3-dihydro-1H-pyrazol-4-yl}amino)-2,2-dimethyl-4-oxobutyl]-2-ethoxy-4-fluorobenzamide]
50 | 210 | Cc1cc2cc(Cl)cc(C(=O)NCC(C)(C)CC(=O)Nc3c(C[C@@H](C)N(C)C)n(C)n(-c4ccccc4)c3=O)c2o1 [Example 50, 5-Chloro-N-[4-({5-[(2R)-2-(dimethylamino)propyl]-1-methyl-3-oxo-2-phenyl-2,3-dihydro-1H-pyrazol-4-yl}amino)-2,2-dimethyl-4-oxobutyl]-2-methylbenzofuran-7-carboxamide]
71 | 140 | CCOc1ccc(Cl)cc1C(=O)NCC(C)(C)CC(=O)Nc1c(C[C@H](C)N(C)C)n(C)n(-c2ccccc2)c1=O [Example 51, 5-Chloro-N-[4-({5-[(2S)-2-(dimethylamino)propyl]-1-methyl-3-oxo-2-phenyl-2,3-dihydro-1H-pyrazol-4-yl}amino)-2,2-dimethyl-4-oxobutyl]-2-ethoxybenzamide]
36 | 120 | CCOc1cc(F)c(Cl)cc1C(=O)NCC(C)(C)CC(=O)Nc1c(C[C@H](C)N(C)C)n(C)n(-c2ccccc2)c1=O [Example 52, 5-Chloro-N-[4-({5-[(2S)-2-(dimethylamino)propyl]-1-methyl-3-oxo-2-phenyl-2,3-dihydro-1H-pyrazol-4-yl}amino)-2,2-dimethyl-4-oxobutyl]-2-ethoxy-4-fluorobenzamide]
